Laboratory results: PMC11215771 (Journal of Medicinal Chemistry, 2024)
Several values for one entry are separate records, joined by “and”; a condition that tells them apart may be missing. Identical values can stand only once.

Columns and labels:
[1] = target: T1, hBACE1 D289N (proteolytic inactive mutant) in HEK293T cells (Homo sapiens, UniProt P56817, D289N); assay: Staining of transfected HEK293T cells, confocal imaging: BACE1 D289N; type: cell-based
T1 construct: expressed in transfected cells; host or cells: HEK293T
T1 sequence (P56817 46-501 D289N): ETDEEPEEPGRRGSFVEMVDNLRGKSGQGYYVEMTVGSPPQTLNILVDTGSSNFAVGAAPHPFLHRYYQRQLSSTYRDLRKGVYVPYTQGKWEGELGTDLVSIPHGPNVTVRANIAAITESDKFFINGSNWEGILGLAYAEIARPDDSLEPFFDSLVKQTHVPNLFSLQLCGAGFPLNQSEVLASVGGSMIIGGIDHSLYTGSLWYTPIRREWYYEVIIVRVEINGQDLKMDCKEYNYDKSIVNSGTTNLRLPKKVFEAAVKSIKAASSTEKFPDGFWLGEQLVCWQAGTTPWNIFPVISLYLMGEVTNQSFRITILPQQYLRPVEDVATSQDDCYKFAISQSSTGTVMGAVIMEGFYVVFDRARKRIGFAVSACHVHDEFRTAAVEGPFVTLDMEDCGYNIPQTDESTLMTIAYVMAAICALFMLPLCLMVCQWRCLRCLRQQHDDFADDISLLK
Method: (§1) Next, we explored the performance of the new Alexa-C3 compounds in living cells. Because of the rather hydrophilic properties, we exclusively targeted the cell membrane. To prevent intracellular accumulation, we first performed stainings at 4 °C arresting ATP-dependent endocytosis. […] All of the constructs were tagged at the C-terminus with either EGFP or mCherry to visualize subcellular expression. […] With these experiments, we want to exclude that a lack of staining is caused by an impaired accessibility of the protein by Alexa-C3 compounds. […] We then tested samples with BACE1 expression after fixation of the cells with paraformaldehyde (PFA).
(§2) (D) All conjugates were also probed on cells fixed with 4% paraformaldehyde (PFA) for 15 min prior to staining. […] Scale bars represent 5 μm (A–D) and 20 μm (E). […] Samples were excited at 488, 561, and 633 nm, respectively.
(§3) HEK293T cells (ATCC accession number CRL-11268) were maintained in Dulbecco's modified Eagle's medium (Sigma-Aldrich D6046) with 1g/L glucose, supplemented with 10% FCS (Merck) and 1% penicillin/streptomycin (PAA). CHO-K1 cells (ATCC #CCL-61) were maintained in modified phenol red free RPMI-1640 medium (Sigma-Aldrich, R7509), supplemented with 2 mM L-glutamine (Sigma-Aldrich, G7513), and 10% FCS (Merck). Cells were cultured at 37 °C in a 5% CO2 atmosphere. The following plasmids were used for transfection with the amount of DNA indicated (per 35 mm Petri dish): hBACE1 (NM_012104.4), 50 ng for single molecule recordings, 200 ng otherwise; hBACE1 fused to EGFP or mCherry, 75 ng; hBACE1 D289N fused to EGFP or mCherry, 75 ng; hBACE1 D289N, 200–400 ng; hBACE2 (NM_012105.3) fused to EGFP, 75 ng; hCathepsinD (HsCD00438327), Harvard PlasmID, 75 ng. Transfection was performed 24 h after plating using jetPEI (Polyplus) according to the manufacturer’s protocol.
For labeling, we plated HEK293T cells onto sterile 18 mm 1.5H borosilicate coverslips (VWR), coated with poly-D-lysine (Sigma). […]

[2] = target: T2, hBACE1 fused to EGFP or mCherry in HEK293T cells (Homo sapiens, UniProt P56817); assay: Staining of transfected HEK293T cells, confocal imaging: BACE1; type: cell-based; details: living HEK293T, preincubation with 2 μM C3
T2 construct: expressed in transfected cells; host or cells: HEK293T
T2 sequence (P56817 46-501): as the sequence (P56817 46-501 D289N) above, with N244D counted along it
Method: as §1, §2, §3
For labeling, we plated HEK293T cells onto sterile 18 mm 1.5H borosilicate coverslips (VWR), coated with poly-D-lysine (Sigma). […] In addition, some cells were also fixed with 4% PFA or permeabilized with HBS + 50 μg/mL of Saponin for 15 min prior to staining as stated in the figure legend. After staining, live cells were washed with HBS twice. Confocal imaging was conducted at room temperature in HBS using the 63× objective and the pinhole set to 1 AU. Confocal imaging was performed 24 h after transfection.

[3] = target: T3, wild-type hBACE1 in CHO-K1 cells (Homo sapiens, UniProt P56817); assay: Single molecule TIRF microscopy and bleaching step analysis in CHO-K1 cells; type: cell-based; details: 200 nM probe, fixed CHO-K1, TIRF, after rolling background subtraction
T3 construct: expressed in transfected cells; host or cells: CHO-K1
T3 sequence (P56817 46-501): as the sequence (P56817 46-501 D289N) above, with N244D counted along it
Method: Due to the high photostability and quantum yield of the Alexa dyes, the C3-compounds are potential tools for single molecule fluorescence microscopy of BACE1. […] CHO-K1 cells were transfected with wild-type BACE1. […] The samples were then recorded using total internal reflection fluorescence (TIRF) microscopy. […] Prior to analysis, ImageJ rolling background subtraction was applied[45] (Figure 6A, right panel). […] Single particles were identified and time traces of fluorescence intensity were extracted using GMimPro[46] (Figure 6B). The time traces were then subjected to a bleaching-step analysis with quickPBSA[47] (Figure 6B). […] The msfGFP was reported previously to display a fluorescence probability of about 50%, defined as combined probability of fluorescence, detection in the specific imaging system and identification in the analysis of a BACE1 molecule.[48] […] Here, the best fits indicated also a fluorescence probability of about 60%, but with a considerably lower fit error compared to dimers only (Figure 6D, blue traces).
The panel in the middle depicts typical single molecule complexes 48 h after transfection with 50 ng wild type BACE1. […] The insets highlight single fluorescence spots at higher magnification. […] (B) Single fluorescence spots were located and fluorescence intensities over time were extracted (see methods). […]

[4] = Fluorescence spectroscopy, sensitivity to BSA and Expi293F cells
Method: Emission and excitation spectra of all compounds were determined at a concentration of 33 nM in phosphate buffered saline (PBS) using an infinite 200pro (Tecan) with a resolution of 2 nm. […] For sensitivity assessment, we used PBS, PBS + BSA (0.05%), and Expi293F cells in fluorobrite (2 × 10^6 cells/mL).

[5] = target: T4, recombinant BACE1 extracellular domain (Homo sapiens, UniProt P56817); assay: FRET-based BACE1 inhibition (BACE1-activity FRET) assay; type: biochemical
T4 construct: purchased Thermo Fisher Scientific P2985
T4 sequence (P56817 46-457 limits assumed): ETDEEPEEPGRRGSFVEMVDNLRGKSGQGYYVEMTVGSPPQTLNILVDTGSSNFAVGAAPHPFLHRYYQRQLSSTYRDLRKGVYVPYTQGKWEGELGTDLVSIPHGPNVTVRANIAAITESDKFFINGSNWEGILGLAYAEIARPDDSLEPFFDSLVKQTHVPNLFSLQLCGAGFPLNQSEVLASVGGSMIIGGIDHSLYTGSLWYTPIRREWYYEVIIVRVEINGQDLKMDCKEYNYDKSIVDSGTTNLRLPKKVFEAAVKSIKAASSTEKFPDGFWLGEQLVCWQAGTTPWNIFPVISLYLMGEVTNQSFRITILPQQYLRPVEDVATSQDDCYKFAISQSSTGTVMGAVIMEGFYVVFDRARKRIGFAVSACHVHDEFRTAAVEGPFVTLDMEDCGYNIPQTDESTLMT
Method: In addition, we performed a fluorescence resonance energy transfer (FRET)-based BACE1 inhibition assay using the recombinant BACE1 extracellular domain and a BACE1 substrate coupled to a donor fluorophore, which is unquenched […] to the activity of BACE1. […] (Figure 1F).
Protease activity was determined using a FRET-based assay with recombinant BACE1 protein (Thermo Fisher Scientific; P2985). BACE1 inhibition was determined in end-points assays according to the manufacturer’s protocol except using a reduced volume of 12 μL in 384-well plates (Greiner, 788896). […] Fluorescence intensities were quantified with an infinite 200pro reader (Tecan) using top-reading mode. Data points were approximated using a logistic fit to determine half-inhibitory concentrations (pIC50).

[6] = FCS of free Alexa-C3 in HBS in the absence of BACE1; details: 100 nM in HBS, pH 5, no BACE1, mean ± SD
[7] = target: recombinant human BACE1 protein (amino acids 1–457, extracellular domain) (Homo sapiens, UniProt P56817); assay: Fluorescence correlation spectroscopy (FCS) with BACE1 ECD in solution
Chain of recombinant human BACE1 protein (amino acids 1–457, extracellular domain) (P56817 22-457): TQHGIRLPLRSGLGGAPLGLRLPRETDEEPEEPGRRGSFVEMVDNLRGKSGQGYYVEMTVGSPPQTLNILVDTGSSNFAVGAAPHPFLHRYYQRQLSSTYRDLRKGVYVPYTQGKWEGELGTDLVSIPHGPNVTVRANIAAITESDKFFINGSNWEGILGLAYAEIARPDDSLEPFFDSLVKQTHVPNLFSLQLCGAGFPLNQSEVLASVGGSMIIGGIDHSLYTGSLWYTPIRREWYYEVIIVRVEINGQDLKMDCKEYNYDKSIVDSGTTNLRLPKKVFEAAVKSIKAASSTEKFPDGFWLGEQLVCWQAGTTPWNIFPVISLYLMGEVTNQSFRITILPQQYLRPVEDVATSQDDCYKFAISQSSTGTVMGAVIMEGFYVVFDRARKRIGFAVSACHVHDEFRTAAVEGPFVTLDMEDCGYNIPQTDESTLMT

[8] = target: BACE-1 (mouse Protein, recombinant) (Mus musculus, UniProt P56818); assay: Nanotemper (Monolith NT.115) binding analysis; details: for binding of free acid dyes to recombinant BACE1: 0.1 nM dye, BACE1 0.3–5000 nM
Chain of BACE-1 (mouse Protein, recombinant) (P56818 46-457 limits assumed): as the sequence (P56817 46-457 limits assumed) above, with P6S, V162I, L165I, S180T, V182A, I340V, L393A counted along it
Method: For binding analysis, the Monolith NT.115 (Nanotemper) was used. BACE-1 (mouse Protein, recombinant, life technologies, 50002-M08H-250, LCL10JA2204)) was dissolved in 50 mM HEPES/100 mM NaCl, pH 5 to a concentration of 20 μM. […] Samples were loaded on standard capillaries (Nanotemper, MO-K022) and measured in triplicate at 22 °C, using 1%/60% LED power for Alexa488/Alexa568 and 10% MST power. Fluorescence was plotted against protein concentrations.

[9] = BACE1 concentration 0.305 (unit not given; 0.3–5000 nM), triplicate
[10] = BACE1 concentration 0.61, triplicate
[11] = BACE1 concentration 1.221, triplicate
[12] = BACE1 concentration 2.441, triplicate
[13] = BACE1 concentration 4.883, triplicate
[14] = BACE1 concentration 9.766, triplicate
[15] = BACE1 concentration 19.531, triplicate
[16] = BACE1 concentration 39.062, triplicate
[17] = BACE1 concentration 78.125, triplicate
[18] = BACE1 concentration 156.25, triplicate
[19] = BACE1 concentration 312.5, triplicate
[20] = BACE1 concentration 625, triplicate
[21] = BACE1 concentration 1250, triplicate
[22] = BACE1 concentration 2500, triplicate
[23] = BACE1 concentration 5000, triplicate

SMILES | binding of free acid dyes to recombinant BACE1 [8] | fluorescence reading, single replicates [8, 9] | fluorescence reading, single replicates [8, 10] | fluorescence reading, single replicates [8, 11] | fluorescence reading, single replicates [8, 12] | fluorescence reading, single replicates [8, 13] | fluorescence reading, single replicates [8, 14] | fluorescence reading, single replicates [8, 15] | fluorescence reading, single replicates [8, 16] | fluorescence reading, single replicates [8, 17] | fluorescence reading, single replicates [8, 18] | fluorescence reading, single replicates [8, 19] | fluorescence reading, single replicates [8, 20] | fluorescence reading, single replicates [8, 21] | fluorescence reading, single replicates [8, 22] | fluorescence reading, single replicates [8, 23] | also measured
C[C@@H](NC(=O)c1cc(C(=O)N[C@@H](Cc2ccccc2)[C@H](O)CNC2CC2)cc(N(C)S(=O)(=O)CCCNC(=O)c2ccc(C(=O)O)c(C3=c4cc5c(cc4Oc4cc6c(cc43)C(CS(=O)(=O)O)=CC(C)(C)N6)=NC(C)(C)C=C5CS(=O)(=O)O)c2)c1)c1ccccc1 |  |  |  |  |  |  |  |  |  |  |  |  |  |  |  |  | staining of BACE1 D289N [1]: no appreciable fluorescence; staining of BACE1 after preincubation with unconjugated C3 [2]: no appreciable fluorescence; signal-to-background ratio [3]: 5.9; increase of fluorescent output in PBS supplemented with BSA ([4]; PBS + BSA (0.05%) vs PBS alone): +228%; increase of fluorescent output in presence of Expi293F cells ([4]; mock Expi293F cells in fluorobrite vs PBS alone): +302%; increase of potency of the pIC50 in a cell-free assay vs parent C3 ([5]; compared with unconjugated C3): 10 fold; IC50 ([5]; logistic fit, n = 3 for each compound, read-out: pIC50 (negative logarithm of the half-inhibitory concentration) (converted)): 2.45 nM; diffusion time constant of free probe [6]: 49 ± 2 μs; EC50 [7]: 45.7 nM; diffusion time constant of the second (BACE1-bound, slow) population ([7]; 100 nM probe with BACE1 ECD, pH 5, mean ± SEM, n = 3 preparations): 300 ± 20 μs
N=c1ccc2c(-c3cc(C(=O)O)ccc3C(=O)O)c3ccc(N)c(S(=O)(=O)O)c3oc-2c1S(=O)(=O)O [Alexa488] | did not observe any indication for affinity | 996.43 and 995.816 and 995.716 | 995.873 and 995.729 and 996.039 | 995.788 and 996.299 and 996.353 | 996.08 and 995.975 and 995.829 | 996.289 and 995.771 and 996.152 | 995.856 and 996.198 and 996.218 | 996.164 and 995.908 and 996.132 | 996.17 and 996.327 and 995.657 | 996.076 and 996.3 and 995.686 | 996.777 and 995.969 and 996.167 | 996.159 and 995.85 and 996.173 | 995.972 and 996.54 and 995.887 | 996.02 and 995.911 and 996.501 | 996.211 and 996.223 and 996.163 | 996.477 and 996.486 and 996.65 | 
CC1(C)C=C(CS(=O)(=O)O)c2cc3c(cc2=N1)Oc1cc2c(cc1C=3c1cc(C(=O)O)ccc1C(=O)O)C(CS(=O)(=O)O)=CC(C)(C)N2 [Alexa568] | did not observe any indication for affinity | 1000.167 and 1000.199 and 1000.049 | 1000.123 and 1000.132 and 1000.01 | 1000.102 and 1000.025 and 1000.071 | 1000.271 and 1000.043 and 1000.008 | 1000.035 and 1000.075 and 1000.095 | 999.978 and 999.965 and 1000.148 | 1000.105 and 1000.065 and 999.949 | 1000.023 and 999.969 and 1000.096 | 1000.136 and 1000.189 and 1000.122 | 1000.014 and 1000.053 and 1000.126 | 999.991 and 999.997 and 999.948 | 999.898 and 999.877 and 999.931 | 999.758 and 999.742 and 999.781 | 999.645 and 999.707 and 999.65 | 999.562 and 999.587 and 999.529 | 
